Test results from patent US12498382B2, “Biomarkers for vitiligo” (INCYTE CORPORATION, priority 2019, dated 2025).

System: HaCaT cells
Experiment: Normalized expression of target genes in HaCaT cells stimulated with TNFα and IFNγ in presence/absence of JAK inhibitors (QuantiGene Plex)
Format: cell-based, human
Experimental: Transformed human keratinocyte (HaCaT) cells were purchased from AddexBio (Catalog #T0020001) and cultured as outlined in Example 5. […] After 48 hours, cell culture media was removed from 24 well plates and replaced with 250 uL of media containing serial diluted drug, then incubated for 15 minutes at 37° C./5% CO2. After drug incubation, 250 uL of combinatory stimulation containing Recombinant Human Interferon gamma (R&D Systems, Catalog #285-IF-100) and Recombinant Human Tumor Necrosis Factor alpha (R&D Systems, Catalog #210-TA-020) was added to plates. The final concentration of Recombinant Human Interferon gamma and Recombinant Human Tumor Necrosis Factor alpha was 25 ng/mL of each cytokine. Cytokine stimulation added to wells containing drug brought the final concentrations for each drug treatment to 25 nM, 50 nM, 100 nM, and 200 nM. Treated plates were mixed by gentle agitation for 30 seconds then incubated for 24 hours at 37° C./5% CO2. At the end of the 24 hour incubation media was immediately removed from each plate.
RNA was isolated from HaCaT cells using the QuantiGene Plex Assay reagents and protocols (Affymetrix, Catalog #QGP-232-M18042302) according to the manufacturer's guidelines. Cells were washed with 1×DPBS then lysed by incubation with provided QuantiGene lysis buffer for 30 minutes at 50-55° C. Cell lysates were incubated for 18-24 hours at 55° C. with capture beads and probe set designed to specifically hybridize to mRNA from targets of interest. Genes included housekeeping genes (e.g., HPRT1 and GAPDH) used for the normalization of the results. After the 18-24 hour incubation signal was amplified utilizing branched DNA methodologies, according to the manufacturer's procedures (Affymetrix, Catalog #QGP-232-M18042302). After hybridization and wash steps assay plate was read on the Luminex 200 and data were expressed as Net Median Fluorescence Intensity. Data was then normalized to the Net Median Fluorescence Intensity of the housekeeping gene HPRT1 (Table 14).

[1] = TNFα+IFNγ 25 ng/mL, Drug Conc 25 nM
[2] = TNFα+IFNγ 25 ng/mL, Drug Conc 50 nM
[3] = TNFα+IFNγ 25 ng/mL, Drug Conc 100 nM
[4] = TNFα+IFNγ 25 ng/mL, Drug Conc 200 nM
[5] = no stimulation, Drug Conc 200 nM

## N#CCC1(n2cc(-c3ncnc4[nH]ccc34)cn2)CN(C2CCN(C(=O)c3ccnc(C(F)(F)F)c3F)CC2)C1 [Cpd B, {1-{1-[3-fluoro-2-(trifluoromethyl)isonicotinoyl]piperidin-4-yl}-3[4-(7H-pyrrolo[2,3-d]pyrimidin-4-yl)-1H-pyrazol-1-yl]azetidin-3-yl}acetonitrile]
[1]
  AREG normalized expression MFI: 737.85 ± 22.1
  CCL17 normalized expression MFI: 3.37 ± 0.54
  CCL18 normalized expression MFI: 2.12 ± 0.32
  FLG normalized expression MFI: 71.57 ± 9.14
  IL6 normalized expression MFI: 130.24 ± 3.84
  IL8 normalized expression MFI: 381.74 ± 10.25
  IL17A normalized expression MFI: 0.88 ± 0.13
  IL22 normalized expression MFI: 1.21 ± 0.24
  IL23A normalized expression MFI: 43.92 ± 1.89
  IL31 normalized expression MFI: 1.33 ± 0.33
  ILIA normalized expression MFI: 1288.02 ± 20
  IYK2 normalized expression MFI: 292.92 ± 7.99
  JAK1 normalized expression MFI: 216.23 ± 6.41
  JAK2 normalized expression MFI: 109.39 ± 2.8
  JAK3 normalized expression MFI: 0.84 ± 0.12
  LOR normalized expression MFI: 43.2 ± 14.11
  S100A7 normalized expression MFI: 5.45 ± 1.02
  S100A12 normalized expression MFI: 1.21 ± 0.16
  SERPINB3 normalized expression MFI: 3.16 ± 0.43
  SERPINB4 normalized expression MFI: 4.23 ± 0.7
  STAT1 normalized expression MFI: 2861.37 ± 204.56
  STAT3 normalized expression MFI: 1466.73 ± 66.75
  STAT4 normalized expression MFI: 6 ± 0.46
  STAT5A normalized expression MFI: 23.69 ± 1.63
  STAT5B normalized expression MFI: 40.74 ± 2.3
  STAT6 normalized expression MFI: 1004.82 ± 23.76
  TNF normalized expression MFI: 28.04 ± 1.24
  VEGFA normalized expression MFI: 553.23 ± 11.38
[2]
  AREG normalized expression MFI: 701.57 ± 12.75
  CCL17 normalized expression MFI: 3.06 ± 0.34
  CCL18 normalized expression MFI: 2.2 ± 0.35
  FLG normalized expression MFI: 74.31 ± 8.77
  IL6 normalized expression MFI: 122.69 ± 4.36
  IL8 normalized expression MFI: 376.41 ± 13.16
  IL17A normalized expression MFI: 0.92 ± 0.14
  IL22 normalized expression MFI: 1.15 ± 0.18
  IL23A normalized expression MFI: 45.85 ± 2.3
  IL31 normalized expression MFI: 1.22 ± 0.29
  ILIA normalized expression MFI: 1258.76 ± 23.63
  IYK2 normalized expression MFI: 287.31 ± 11.08
  JAK1 normalized expression MFI: 210.42 ± 10.89
  JAK2 normalized expression MFI: 101 ± 2.26
  JAK3 normalized expression MFI: 0.83 ± 0.15
  LOR normalized expression MFI: 43.96 ± 15.87
  S100A7 normalized expression MFI: 7.08 ± 1.99
  S100A12 normalized expression MFI: 1.04 ± 0.15
  SERPINB3 normalized expression MFI: 2.3 ± 0.34
  SERPINB4 normalized expression MFI: 3.76 ± 0.66
  STAT1 normalized expression MFI: 2855.28 ± 166.89
  STAT3 normalized expression MFI: 1437.28 ± 60.69
  STAT4 normalized expression MFI: 6.22 ± 0.42
  STAT5A normalized expression MFI: 22.32 ± 2.16
  STAT5B normalized expression MFI: 42.9 ± 2.44
  STAT6 normalized expression MFI: 990.05 ± 21.06
  TNF normalized expression MFI: 28.66 ± 2.58
  VEGFA normalized expression MFI: 545.93 ± 9.71
[3]
  AREG normalized expression MFI: 731.24 ± 25.4
  CCL17 normalized expression MFI: 2.87 ± 0.33
  CCL18 normalized expression MFI: 2.01 ± 0.44
  FLG normalized expression MFI: 74.99 ± 8.16
  IL6 normalized expression MFI: 111.07 ± 4.74
  IL8 normalized expression MFI: 387.33 ± 19.5
  IL17A normalized expression MFI: 0.85 ± 0.15
  IL22 normalized expression MFI: 1 ± 0.17
  IL23A normalized expression MFI: 53.05 ± 3.22
  IL31 normalized expression MFI: 1.04 ± 0.31
  ILIA normalized expression MFI: 1162.35 ± 23.34
  IYK2 normalized expression MFI: 284.15 ± 9.62
  JAK1 normalized expression MFI: 205.03 ± 11.49
  JAK2 normalized expression MFI: 94.5 ± 2.65
  JAK3 normalized expression MFI: 0.92 ± 0.13
  LOR normalized expression MFI: 31.4 ± 10.44
  S100A7 normalized expression MFI: 3.83 ± 1.02
  S100A12 normalized expression MFI: 1 ± 0.17
  SERPINB3 normalized expression MFI: 2.2 ± 0.35
  SERPINB4 normalized expression MFI: 2.87 ± 0.48
  STAT1 normalized expression MFI: 2783.68 ± 179.19
  STAT3 normalized expression MFI: 1373.34 ± 55.51
  STAT4 normalized expression MFI: 6.21 ± 0.48
  STAT5A normalized expression MFI: 20.87 ± 2.1
  STAT5B normalized expression MFI: 40.75 ± 2.41
  STAT6 normalized expression MFI: 987.64 ± 15.75
  TNF normalized expression MFI: 29.5 ± 2.82
  VEGFA normalized expression MFI: 524.82 ± 13.65
[4]
  AREG normalized expression MFI: 730.41 ± 24.58
  CCL17 normalized expression MFI: 3.13 ± 0.48
  CCL18 normalized expression MFI: 1.68 ± 0.32
  FLG normalized expression MFI: 87.37 ± 10.99
  IL6 normalized expression MFI: 93.03 ± 3.25
  IL8 normalized expression MFI: 377.69 ± 20.45
  IL17A normalized expression MFI: 0.91 ± 0.17
  IL22 normalized expression MFI: 1.01 ± 0.19
  IL23A normalized expression MFI: 59.53 ± 3.83
  IL31 normalized expression MFI: 1.14 ± 0.32
  ILIA normalized expression MFI: 1126.94 ± 26.22
  IYK2 normalized expression MFI: 277.52 ± 8.67
  JAK1 normalized expression MFI: 195.97 ± 10.45
  JAK2 normalized expression MFI: 89.16 ± 3.43
  JAK3 normalized expression MFI: 0.79 ± 0.15
  LOR normalized expression MFI: 38.46 ± 14.1
  S100A7 normalized expression MFI: 5.73 ± 1.59
  S100A12 normalized expression MFI: 1.14 ± 0.16
  SERPINB3 normalized expression MFI: 2.21 ± 0.44
  SERPINB4 normalized expression MFI: 3.19 ± 0.7
  STAT1 normalized expression MFI: 2850.04 ± 177.51
  STAT3 normalized expression MFI: 1400.77 ± 58.44
  STAT4 normalized expression MFI: 6.27 ± 0.56
  STAT5A normalized expression MFI: 19.2 ± 1.94
  STAT5B normalized expression MFI: 41 ± 3.46
  STAT6 normalized expression MFI: 985.17 ± 29.31
  TNF normalized expression MFI: 28.31 ± 2.97
  VEGFA normalized expression MFI: 516.11 ± 14.7
[5]
  AREG normalized expression MFI: 260.61 ± 14.67
  CCL17 normalized expression MFI: 1.56 ± 0.38
  CCL18 normalized expression MFI: 1.49 ± 0.37
  FLG normalized expression MFI: 256.93 ± 36.45
  IL6 normalized expression MFI: 4.7 ± 0.32
  IL8 normalized expression MFI: 61.71 ± 4.86
  IL17A normalized expression MFI: 0.46 ± 0.1
  IL22 normalized expression MFI: 0.61 ± 0.13
  IL23A normalized expression MFI: 11.41 ± 1.43
  IL31 normalized expression MFI: 0.72 ± 0.18
  ILIA normalized expression MFI: 92.67 ± 5.54
  IYK2 normalized expression MFI: 217.28 ± 14.28
  JAK1 normalized expression MFI: 177.97 ± 14.91
  JAK2 normalized expression MFI: 25.21 ± 1.12
  JAK3 normalized expression MFI: 0.68 ± 0.17
  LOR normalized expression MFI: 23.78 ± 7.16
  S100A7 normalized expression MFI: 4.94 ± 1.59
  S100A12 normalized expression MFI: 0.8 ± 0.13
  SERPINB3 normalized expression MFI: 2.25 ± 0.49
  SERPINB4 normalized expression MFI: 3.39 ± 0.89
  STAT1 normalized expression MFI: 529.16 ± 21.86
  STAT3 normalized expression MFI: 732.19 ± 23.03
  STAT4 normalized expression MFI: 4.28 ± 0.61
  STAT5A normalized expression MFI: 1.75 ± 0.44
  STAT5B normalized expression MFI: 58.85 ± 6.21
  STAT6 normalized expression MFI: 740.11 ± 34.98
  TNF normalized expression MFI: 2.58 ± 0.57
  VEGFA normalized expression MFI: 211.13 ± 12.18
